Results from patent US8092833B2, “Compositions containing inclusion complexes” (California Institute of Technology, priority 2000, dated 2012).
Where a SMILES comes first, the peptide text is derived from it. The star is where a group is joined. Adamantane1carbonyl = O=C(C12CC3CC(CC(C3)C1)C2)*; {FITC} = fluorescein (FITC) label; Ad = adamantane

Legend:
HUH-7 cells = assay: FITC-Oligo uptake by HUH-7 cells after post-complexation pegylation, FACS (Example 41); format: cell-based; conditions: 3+/− charge ratio, 1:1 PEG to cyclodextrin, 15 minute incubation
Method: Step 1: Transfection mixtures were prepared as follows: An equal volume of cationic, 12 was added to 3 μg of FITC-Oligos (0.1 μg/μL in water) at a 3+/−charge ratio of polymer to DNA. To the complexes was added free PEG or Ad-PEG5000 (as prepared in Example 40) at a 1:1 PEG to cyclodextrin ratio.
Step 2. HUH-7 cells were plated at 3×10^5 cells/well in 6 well plates and maintained in 4 mLs of DMEM+10% FBS+Antibiotic/Antimycotic for 24 hours. After 24 hours, the cells were washed with PBS and 1 mL of Optimem containing the transfection mixtures of Step 1 was added to the cells. After a 15 minute incubation, the transfection media was removed, the cells were washed with PBS and 1 mL of Optimem was added to each well. The cells were incubated for another 30 minutes at 37° C. The cells were then washed with Cell Scrub Buffer (Gene Therapy Systems) to remove surface-associated complexes and PBS and then detached from the wells by trypsin treatment. The cells were then prepared and analyzed by FACS analysis for FITC-Oligo uptake. The modification of the complexes by Ad-PEG5000 decreases uptake of the FITC-Oligo/polymer complexes.

BHK-21 cells = assay: Toxicity of GALA / GALA-Ad compositions by total protein of cell lysates (Example 35); format: cell-based; conditions: peptide added to 12/pGL-CV3 5+/−, 48 hours after transfection
Method: The toxicity of GALA and GALA-Ad modified compositions was determined by measuring the protein concentrations of the cell lysates obtained in the transfection experiments. BHK-21 cells were transfected with 1 μg of pGL-CV3 complexed with 12 at 5+/−charge ratio. Prior to transfection, various ratios of GALA and GALA-Ad were added to the complexes. Cell survival for transfections in the presence of GALA (solid bars) and GALA-Ad (white bars) was determined by assaying for total protein concentrations 48 hours after transfection and normalizing each sample with protein levels for untransfected cells. The protein concentrations are reported as the mean±SD of three replicates were averaged and divided by the average protein concentration of cells transfected with 12/pGL-CV3 compositions alone and reported as fraction cell survival (FIG. 7).

HepG2 cells = assay: Galactose-mediated luciferase transfection of HepG2 hepatoma cells (Example 49); format: cell-based; conditions: for transfection of HepG2 cells: 12/pCMV-Luc, 2 CD:1 PEG
Method: HepG2 cells were plated in 24-well plates at 50,000 cells/well. 1 μg of pCMV-Luc was contacted with an equal volume of 12 and modified as indicated below. Modification with PEG-containing complexing agents was done at a 2:1 CD:PEG ratio, where CD represents the cyclodextrins in 12.
200 μL of Optimem was added to each transfection mixture and transferred to each well of cells. 4 hours after transfection, 800 μL of complete media was added to each well. The media was removed, cells washed with PBS, and 1 mL of complete media added to each well 24 hours after transfection. 48 hours after transfection cells were washed with PBS, lysed and analyzed for luciferase activity. The described transfection procedure was also executed in the presence of 1 mM glucose or 1 mM galactose as a competitive inhibitor.

[1] = Zeta potential of particulate composites modified with PEG-peptide-Ad agents (Example 49); format: physicochemical; conditions: 12/pCMV-Luc, 2 CD:1 PEG
[2] = Zeta potential of Tf-modified polyplexes (Example 58); format: physicochemical; conditions: 12/DNA 3+/−
Method: An equivolume aliquot of 12 was added to an aliquot of plasmid DNA ([…], 0.1 mg/mL in water) at a 3+/−charge ratio to form the particulate composite. Holo-transferrin or holo-Tf-PEG-Ad (17 mg/mL in water) was then added to the particulate composite. The particles were diluted by the addition of 1.2 mL of water and zeta potential determined by measurements on a ZetaPals dynamic light scattering instrument (Brookhaven Instruments). The unmodified holo-transferrin associates with the particulate composites by electrostatic interactions. […] The holo-Transferrin-PEG-Ad (designated Tf-PEG-Ad in FIG. 25) is likely to associate to the particulate composites by both electrostatic and inclusion compound interactions. Therefore, there is a higher association of holo-Tf-PEG-Ad with the particles, as evidenced by the continued decrease in zeta potential of the modified particles with higher concentrations of holo-Tf-PEG-Ad. At 2 nmol Tf/μg, particulate composites modified with holo-Tf-PEG-Ad are negatively charged (zeta potential ˜−7 mV).

**Q.** For “5′-FITC-ACT GCT TAC CAG GGA TTTCAG TGC A-3′ (DNA ACTGCTTACCAGGGATTTCAGTGCA; DNA, 5' {FITC}, backbone and methylation of C not given here) [FITC-Oligo]”, which “Percent Transfected” value (HUH-7 cells) is on record?
**A.** 0%

**Q.** For `CC(C)C[C@H](NC(=O)[C@H](C)NC(=O)[C@H](CCC(=O)O)NC(=O)[C@H](CC(C)C)NC(=O)[C@H](C)NC(=O)[C@H](CCC(=O)O)NC(=O)[C@H](C)NC(=O)[C@H](CC(C)C)NC(=O)[C@H](C)NC(=O)[C@H](CCC(=O)O)NC(=O)[C@H](C)NC(=O)[C@H](CC(C)C)NC(=O)[C@H](Cc1c[nH]cn1)NC(=O)[C@H](CCC(=O)O)NC(=O)[C@H](C)NC(=O)[C@H](CC(C)C)NC(=O)[C@H](C)NC(=O)[C@H](CCC(=O)O)NC(=O)[C@H](C)NC(=O)[C@H](CC(C)C)NC(=O)[C@H](C)NC(=O)[C@H](CCC(=O)O)NC(=O)[C@H](C)NC(=O)[C@H](CC(C)C)NC(=O)[C@H](C)NC(=O)[C@H](C)NC(=O)[C@H](CCC(=O)O)NC(=O)[C@@H](N)Cc1c[nH]c2ccccc12)C(=O)N[C@@H](C)C(=O)N[C@@H](C)C(=O)O` [GALA, WEAALAEALAEALAEHLAEALAEALEALAA, reference compound] (H-WEAALAEALAEALAEHLAEALAEALEALAA-OH), which “toxicity to BHK-21 cells (fraction cell survival)” value (BHK-21 cells) is on record?
**A.** no observable toxicity

**Q.** With `CC(C)C[C@H](NC(=O)[C@H](C)NC(=O)[C@H](CCC(=O)O)NC(=O)[C@H](CC(C)C)NC(=O)[C@H](C)NC(=O)[C@H](CCC(=O)O)NC(=O)[C@H](C)NC(=O)[C@H](CC(C)C)NC(=O)[C@H](C)NC(=O)[C@H](CCC(=O)O)NC(=O)[C@H](C)NC(=O)[C@H](CC(C)C)NC(=O)[C@H](Cc1c[nH]cn1)NC(=O)[C@H](CCC(=O)O)NC(=O)[C@H](C)NC(=O)[C@H](CC(C)C)NC(=O)[C@H](C)NC(=O)[C@H](CCC(=O)O)NC(=O)[C@H](C)NC(=O)[C@H](CC(C)C)NC(=O)[C@H](C)NC(=O)[C@H](CCC(=O)O)NC(=O)[C@H](C)NC(=O)[C@H](CC(C)C)NC(=O)[C@H](C)NC(=O)[C@H](C)NC(=O)[C@H](CCC(=O)O)NC(=O)[C@H](Cc1c[nH]c2ccccc12)NC(=O)C12CC3CC(CC(C3)C1)C2)C(=O)N[C@@H](C)C(=O)N[C@@H](C)C(=O)O` [GALA-Ad] (Adamantane1carbonyl-WEAALAEALAEALAEHLAEALAEALEALAA-OH) as the compound, how does the “toxicity to BHK-21 cells (fraction cell survival)” value (BHK-21 cells) read?
**A.** no observable toxicity

**Q.** For “Galactose-PEG3400-CAEAEAEAE-Ad [Gal-PEG-Pep-Ad]”, which “transfection in the presence of free galactose” value (HepG2 cells; 1 mM galactose as competitive inhibitor) is on record?
**A.** inhibited

**Q.** And the “transfection of HepG2 cells” value (HepG2 cells)?
**A.** enhanced transfection

**Q.** Which “transfection of HepG2 cells” value (HepG2 cells) does the source give for “Glucose-PEG3400-CAEAEAEAE-Ad [Glu-PEG-Pep-Ad]” here?
**A.** do not readily transfect cells

**Q.** For PEG5000-CAEAEAEAE-Ad [PEG-Pep-Ad], which “transfection of HepG2 cells” value (HepG2 cells) is on record?
**A.** do not readily transfect cells

**Q.** And the “zeta potential (sign)” value [1]?
**A.** negative

**Q.** Which zeta potential ([2]; 2 nmol Tf/μg) does the source give for “Tf-PEG-Ad: human transferrin coupled via lysine groups to Vinylsulfone-PEG3400-Ad” here?
**A.** ~−7 mV

**Q.** For “holo-transferrin: iron-loaded unmodified transferrin”, which particle charge ([2]; 2 nmol Tf/μg DNA) is on record?
**A.** approach neutrality
